Legend:
[1] = test system: GFP-14-3-3β and its binding proteins; assay: GFP-14-3-3β co-IP with LC-MS/MS label-free quantification, untreated versus PP1c-treated; design: species or system human
Experimental: (§1) HeLa Kyoto cells expressing transiently transfected pEGFP(C1)-14-3-3β or pEGFP(C1) control plasmid, were incubated with 20 nM Calyculin A (# 9902 S, Cell Signaling Technology) for 12 min. Cells were washed twice on ice with cold PBS and after addition of 500 µL lysis buffer (100 mM NaCl, 10 mM Tris, 0.1% IGEPAL, 1 mM EDTA, 1 mM EGTA, 20 nM Calyculin A, 1x cOmplete Mini protease inhibitor cocktail (Sigma), 1 mM DTT, 1 mM MnCl2) cells were scraped from plates, lysed by 10 pushes through an injection needle (21 G, BD) and the insoluble fraction was pelleted by centrifugation (10 min, 10^4 rcf, 4 °C). Supernatants were then subjected to incubation with 1 µM recombinant phosphatase or buffer for 1 h at 30 °C. Next, we subjected samples to immunoprecipitation using α-GFP nanobodies covalently coupled to agarose beads (2 h, 4 °C, obtained from the EMBL PEPcore Core Facility). Beads were then washed three times with lysis buffer and samples were eluted in 1x LDS sample buffer (Thermo Fisher Scientific) by heating to 70 °C for 10 min.
(§2) The samples were then reduced with 25 mM dithiothreitol (10 min at 70 °C) and alkylated with 55 mM chloroacetamide (room temperature, 30 min, in the dark). Proteins were run on a precast 4–12% NuPAGE gel (ThermoFisher Scientific) for about 1 cm to concentrate the sample prior to in-gel tryptic digestion, which was performed according to the standard procedures. The peptides obtained were dried to completeness and resuspended in 12 µL of buffer A (0.1% FA), and 5 µL of sample were injected per MS measurement. The experiment was carried out in three independent replicates.
(§3) The samples were analyzed by LC-MS/MS on a Dionex Ultimate 3000 nano-HPLC coupled online to a Fusion Lumos Tribrid mass spectrometer (Thermo Fisher Scientific). Peptides were delivered to a trap column (75 µm × 2 cm, packed in-house with 5 µm C18 resin; Reprosil PUR AQ, Dr. Maisch) and washed using 0.1% FA at a flow rate of 5 µL/min for 10 min. Subsequently, peptides were transferred to an analytical column (75 µm × 45 cm, packed in-house with 3 µm C18 resin; Reprosil Gold) applying a flow rate of 300 nL/min and separated using a 60 min linear gradient from 4% to 32% LC solvent B (0.1% FA, 5% DMSO in ACN) in LC solvent A (0.1% FA in 5% DMSO). The eluate from the analytical column was sprayed via a stainless steel emitter (Thermo Fisher Scientific) at a source voltage of 2.1 kV into the mass spectrometer. The transfer capillary was heated to 275 °C. The Fusion Lumos was operated in positive ionization mode and data-dependent acquisition (DDA), automatically switching between MS1 and MS2 spectrum acquisition. Full scan MS1 spectra were recorded in the Orbitrap from 360 to 1300 m/z at a resolution of 60k (automatic gain control (AGC) target value of 4e5 charges, maximum injection time (maxIT) of 50 ms). Up to 20 peptide precursors were isolated (isolation window, 1.7 m/z; maximum injection time, 25 ms; and AGC value, 1e5), fragmented by high-energy collision-induced dissociation (HCD) using 30% normalized collision energy (NCE), and analyzed at a resolution of 15k in the Orbitrap. Precursor ions that were singly charged, unassigned, or with charge states >6+ were excluded. The dynamic exclusion duration of fragmented precursor ions was 20 s.
(§4) Peptide and protein identification and LFQ were performed using MaxQuant software (version 1.6.1.0)[64] by searching the data against all canonical protein sequences as annotated in the Swissprot reference database (human proteins only, 20193 entries, downloaded 22 March 2016, internally annotated with PFAM domains) using the embedded search engine Andromeda[65]. The MaxQuant search was performed using two variable modifications; oxidation of methionine and N-terminal protein acetylation. Carbamidomethylation on cysteines was specified as a fixed modification. Trypsin (Trypsin/P) was specified as the proteolytic enzyme with up to two allowed missed cleavage sites.

GFP-14-3-3β = GFP-14-3-3β co-IP with LC-MS/MS, untreated GFP-14-3-3β versus GFP control (14-3-3 interactome); type: binding, human
Experimental: as §1, §2, §3, §4

[2] = GFP-14-3-3β co-IP LC-MS/MS, PP1 vs untreated, student's t-test, label-free quantification, 3 replicates each
[3] = GFP-14-3-3β co-IP LC-MS/MS, untreated vs GFP, student's t-test, label-free quantification, 3 replicates each
[4] = PP1 vs untreated, label-free quantification
[5] = untreated vs GFP, label-free quantification
[6] = PP1 vs untreated, LFQ intensities, 3 replicates each
[7] = untreated vs GFP, LFQ intensities, 3 replicates each
[8] = pairwise comparison PP1 vs untreated
[9] = pairwise comparison untreated vs GFP
[10] = PP1 vs untreated, LFQ intensities, replicates 1-3
[11] = untreated vs GFP, LFQ intensities, replicates 1-3
[12] = pairwise comparison PP1 vs untreated, student's t-test, 3 replicates each, LC-MS/MS label-free quantification
[13] = pairwise comparison untreated GFP-14-3-3β vs GFP, student's t-test, 3 replicates each, LC-MS/MS label-free quantification

## RAD50
[1]; [2]
  Difference (log2), PP1 vs untreated: -0.3723 log2
GFP-14-3-3β; [3]
  Difference (log2), untreated vs GFP: 0.4724 log2

## AGO2
[1]; [4]
  Difference (log2), PP1 vs untreated: 0.7956 log2
GFP-14-3-3β; [5]
  Difference (log2), untreated vs GFP: 0.05278 log2

## TUBB
[1]; [2]
  Difference (log2), PP1 vs untreated: -0.1729 log2
GFP-14-3-3β; [3]
  Difference (log2), untreated vs GFP: -1.012 log2

## CFL1
[1]; [6]
  Difference (log2), PP1 vs untreated: 0.4849 log2
GFP-14-3-3β; [7]
  Difference (log2), untreated vs GFP: -1.088 log2

## TRIM25
[1]; [8]
  Difference (log2), PP1 vs untreated: 0.1738 log2
GFP-14-3-3β; [9]
  Difference (log2), untreated vs GFP: -0.2184 log2

## HSP90AB1
[1]; [10]
  Difference (log2), PP1 vs untreated: -0.9521 log2
GFP-14-3-3β; [11]
  Difference (log2), untreated vs GFP: 0.1843 log2

## YWHAB
[1]; [2]
  Difference (log2), PP1 vs untreated: -0.475 log2
GFP-14-3-3β; [3]
  Difference (log2), untreated vs GFP: 6.723 log2

## TPM4
[1]; [12]
  Difference (log2), PP1 vs untreated: -3.308 log2
GFP-14-3-3β; [13]
  Difference (log2), untreated vs GFP: 0.1774 log2

## PPIA
[1]; [10]
  Difference (log2), PP1 vs untreated: -2.011 log2
GFP-14-3-3β; [11]
  Difference (log2), untreated vs GFP: -0.5989 log2

## MSH6
[1]; [8]
  Difference (log2), PP1 vs untreated: 0.0512 log2
GFP-14-3-3β; [9]
  Difference (log2), untreated vs GFP: 1.062 log2

## RACGAP1
[1]; [12]
  Difference (log2), PP1 vs untreated: -3.139 log2
GFP-14-3-3β; [13]
  Difference (log2), untreated vs GFP: 6.129 log2

## RNF213
[1]; [6]
  Difference (log2), PP1 vs untreated: 0.6499 log2
GFP-14-3-3β; [7]
  Difference (log2), untreated vs GFP: 0.8982 log2

## PHB2
[1]; [4]
  Difference (log2), PP1 vs untreated: 1.222 log2
GFP-14-3-3β; [5]
  Difference (log2), untreated vs GFP: 1.117 log2

## SRGAP1
[1]; [12]
  Difference (log2), PP1 vs untreated: -5.178 log2
GFP-14-3-3β; [13]
  Difference (log2), untreated vs GFP: 5.319 log2

## PLEC
[1]; log2 difference, pairwise comparison PP1 vs untreated, label-free quantification, 3 replicates each
  Difference (log2), PP1 vs untreated: 1.29
GFP-14-3-3β; log2 difference, pairwise comparison untreated vs GFP, label-free quantification, 3 replicates each
  Difference (log2), untreated vs GFP: -0.5388

## MAT2A
[1]; [12]
  Difference (log2), PP1 vs untreated: -2.199 log2
GFP-14-3-3β; [13]
  Difference (log2), untreated vs GFP: 0.8108 log2

## NPM1
[1]; [8]
  Difference (log2), PP1 vs untreated: 0.1234 log2
GFP-14-3-3β; [9]
  Difference (log2), untreated vs GFP: 0.2613 log2

## GNG12
[1]; [10]
  Difference (log2), PP1 vs untreated: -1.974 log2
GFP-14-3-3β; [11]
  Difference (log2), untreated vs GFP: -0.9148 log2

## PABPC1
[1]; [8]
  Difference (log2), PP1 vs untreated: 0.26 log2
GFP-14-3-3β; [9]
  Difference (log2), untreated vs GFP: 0.5949 log2

## EPRS
[1]; [2]
  Difference (log2), PP1 vs untreated: -0.1517 log2
GFP-14-3-3β; [3]
  Difference (log2), untreated vs GFP: -0.2032 log2

## MYH9
[1]; [12]
  Difference (log2), PP1 vs untreated: -2.032 log2
GFP-14-3-3β; [13]
  Difference (log2), untreated vs GFP: 0.3664 log2

## RANBP2
[1]; [10]
  Difference (log2), PP1 vs untreated: -2.029 log2
GFP-14-3-3β; [11]
  Difference (log2), untreated vs GFP: 2.443 log2

## PTBP1
[1]; [6]
  Difference (log2), PP1 vs untreated: 0.7235 log2
GFP-14-3-3β; [7]
  Difference (log2), untreated vs GFP: -0.5421 log2

## DYNLL1
[1]; [12]
  Difference (log2), PP1 vs untreated: -2.451 log2
GFP-14-3-3β; [13]
  Difference (log2), untreated vs GFP: 3.684 log2

## GAPDH
[1]; [12]
  Difference (log2), PP1 vs untreated: -4.245 log2
GFP-14-3-3β; [13]
  Difference (log2), untreated vs GFP: 0.2696 log2

## TUBA1B
[1]; [8]
  Difference (log2), PP1 vs untreated: 0.07589 log2
GFP-14-3-3β; [9]
  Difference (log2), untreated vs GFP: -0.8319 log2

## SRGAP2
[1]; [12]
  Difference (log2), PP1 vs untreated: -5.683 log2
GFP-14-3-3β; [13]
  Difference (log2), untreated vs GFP: 5.241 log2
